Laboratory results: publication PMC10895652, “Preclinical Evaluation of Novel Positron Emission Tomography (PET) Probes for Imaging Leucine-Rich Repeat Kinase 2 (LRRK2)” (Journal of Medicinal Chemistry, 2024)
Where two headings read alike, the source gives them in different places.

What was measured:
LRRK2 [1] = biological target: LRRK2; design: method as in PMID 31365783, PMID 36256881, PMID 33582389, PMID 33248850; conditions: saturation assays; cited from earlier work
LRRK2 WT = conditions: cited from earlier work
MDR1 = conditions: cited from earlier work
[2] = cited from earlier work; for RRCK Papp AB: molecular formula strings file
LRRK2 [3] = biological target: T1, LRRK2 (Rattus norvegicus, UniProt F1LNJ1); assay: In vitro autoradiography in rat brain sections; type: binding; conditions: blocking with 3 (10 μM)
T1 construct: from tissue; host or cells: rat brain (Sprague-Dawley rats)
Procedure: The general procedure for autoradiography studies was described previously with minor revision in this work.[36],[40] Brain sections from rats were preincubated with Tris-HCl buffer (50 mM), MgCl2 (1.2 mM) and CaCl2 (2 mM) solution for 20 min at ambient temperature, followed by incubation with [^11C]3 and [^18F]4 (0.48 nM). […] After incubation, brain sections were rinsed with ice-cold buffer 3 times for 2 min and dipped in cold distilled water for 10 s. The brain sections were dried with cold air and then placed on imaging plates (BAS-MS2025, GE Healthcare, NJ) for optimized contact periods. Autoradiograms were obtained and regions of interest (ROIs) were carefully drawn with the reference of naked-eye observation. Radioactivity was measured using an Amersham Typhoon 5 analyzer system and expressed as photostimulated luminescence values per unit area (PSL/mm^2) or normalized to % of radioactivity vs control.

LRRK2 G2019S = conditions: cited from earlier work
LRRK2 [4] = conditions: read-out: WCA IC50, cited from earlier work
[5] = human liver microsomal clearance; cited from earlier work
THLE cells = conditions: THLE cell viability; cited from earlier work
[6] = design: method as in earlier work; conditions: molecular formula strings file; cited from earlier work

T1 sequence (F1LNJ1 1-2526): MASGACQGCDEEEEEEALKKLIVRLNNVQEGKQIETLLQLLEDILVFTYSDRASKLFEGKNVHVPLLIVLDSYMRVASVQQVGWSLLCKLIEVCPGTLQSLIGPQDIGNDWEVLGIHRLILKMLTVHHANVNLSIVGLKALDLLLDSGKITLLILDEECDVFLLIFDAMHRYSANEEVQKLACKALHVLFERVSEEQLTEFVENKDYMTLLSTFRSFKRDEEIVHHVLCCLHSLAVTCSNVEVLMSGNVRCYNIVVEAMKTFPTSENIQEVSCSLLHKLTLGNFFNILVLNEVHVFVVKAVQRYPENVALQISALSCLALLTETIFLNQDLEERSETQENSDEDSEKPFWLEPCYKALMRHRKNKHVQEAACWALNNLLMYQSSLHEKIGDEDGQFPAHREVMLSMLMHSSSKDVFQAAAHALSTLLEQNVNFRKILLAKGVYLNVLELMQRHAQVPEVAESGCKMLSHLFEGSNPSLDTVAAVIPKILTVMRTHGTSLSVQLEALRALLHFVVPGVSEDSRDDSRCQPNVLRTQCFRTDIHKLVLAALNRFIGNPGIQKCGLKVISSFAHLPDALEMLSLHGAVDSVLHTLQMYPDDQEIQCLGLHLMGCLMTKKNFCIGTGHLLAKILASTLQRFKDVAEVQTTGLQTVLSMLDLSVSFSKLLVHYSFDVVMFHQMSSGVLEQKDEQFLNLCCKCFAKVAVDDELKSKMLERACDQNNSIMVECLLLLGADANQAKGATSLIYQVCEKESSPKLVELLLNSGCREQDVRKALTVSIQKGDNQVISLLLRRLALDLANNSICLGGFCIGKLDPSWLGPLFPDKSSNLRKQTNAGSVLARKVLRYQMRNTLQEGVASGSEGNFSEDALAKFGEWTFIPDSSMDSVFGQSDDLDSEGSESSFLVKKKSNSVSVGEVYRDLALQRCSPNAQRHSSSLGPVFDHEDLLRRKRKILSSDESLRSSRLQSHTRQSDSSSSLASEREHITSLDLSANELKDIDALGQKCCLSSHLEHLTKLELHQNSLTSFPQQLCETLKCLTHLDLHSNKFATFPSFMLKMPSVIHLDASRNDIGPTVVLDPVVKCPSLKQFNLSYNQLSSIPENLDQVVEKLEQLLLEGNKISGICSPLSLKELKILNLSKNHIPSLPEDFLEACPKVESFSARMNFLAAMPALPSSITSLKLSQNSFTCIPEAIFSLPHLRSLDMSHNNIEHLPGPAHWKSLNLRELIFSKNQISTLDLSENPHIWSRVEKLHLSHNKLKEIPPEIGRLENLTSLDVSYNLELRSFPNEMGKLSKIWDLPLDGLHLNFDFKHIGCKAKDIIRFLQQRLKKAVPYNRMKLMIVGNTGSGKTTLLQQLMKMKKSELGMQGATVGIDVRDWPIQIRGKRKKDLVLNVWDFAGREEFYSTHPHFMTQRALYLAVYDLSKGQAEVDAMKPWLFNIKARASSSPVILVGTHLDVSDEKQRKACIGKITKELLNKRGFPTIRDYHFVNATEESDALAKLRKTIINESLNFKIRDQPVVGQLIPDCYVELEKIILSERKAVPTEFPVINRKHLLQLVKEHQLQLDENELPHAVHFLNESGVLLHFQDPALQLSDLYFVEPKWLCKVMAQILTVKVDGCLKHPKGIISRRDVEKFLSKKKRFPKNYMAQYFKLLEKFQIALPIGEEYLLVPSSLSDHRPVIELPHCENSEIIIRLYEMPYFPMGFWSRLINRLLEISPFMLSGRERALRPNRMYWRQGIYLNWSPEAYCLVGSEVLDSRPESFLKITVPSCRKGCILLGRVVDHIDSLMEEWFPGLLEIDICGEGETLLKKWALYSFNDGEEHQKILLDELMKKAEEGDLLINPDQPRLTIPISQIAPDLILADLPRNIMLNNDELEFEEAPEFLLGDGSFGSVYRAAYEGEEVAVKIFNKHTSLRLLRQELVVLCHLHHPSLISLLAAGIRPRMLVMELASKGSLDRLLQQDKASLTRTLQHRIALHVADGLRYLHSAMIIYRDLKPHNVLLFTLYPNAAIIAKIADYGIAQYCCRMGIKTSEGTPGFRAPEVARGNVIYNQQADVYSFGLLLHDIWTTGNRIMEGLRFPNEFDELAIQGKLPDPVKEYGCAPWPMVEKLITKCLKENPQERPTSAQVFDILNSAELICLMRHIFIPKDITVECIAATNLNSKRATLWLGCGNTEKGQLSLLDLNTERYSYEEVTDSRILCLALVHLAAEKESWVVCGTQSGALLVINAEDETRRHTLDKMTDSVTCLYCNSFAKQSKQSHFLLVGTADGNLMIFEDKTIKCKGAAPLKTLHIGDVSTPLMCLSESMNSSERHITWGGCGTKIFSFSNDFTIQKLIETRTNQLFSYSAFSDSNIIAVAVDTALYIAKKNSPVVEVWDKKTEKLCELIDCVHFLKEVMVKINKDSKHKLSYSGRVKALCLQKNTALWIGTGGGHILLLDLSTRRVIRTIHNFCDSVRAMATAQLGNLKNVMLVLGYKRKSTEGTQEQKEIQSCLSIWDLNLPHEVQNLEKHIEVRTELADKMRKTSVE

CC(C)(C)Cn1ccc2c(N3CCOCC3)nc(-c3ccc(NC(=O)c4ccc([18F])nc4)cc3)nc21 [FMN3PA]
Kd (LRRK2 [1]): 20 nM

CC(C)(C)Cn1ccc2c(N3CCOCC3)nc(-c3ccc(NC(=O)Nc4ccc([18F])nc4)cc3)nc21 [FMN3PU]
Kd (LRRK2 [1]): 23.6 nM

CNc1nc(Nc2ccc(C(=O)N3CCOCC3)cc2O[11CH3])ncc1C(F)(F)F [GNE-1023, reference compound]
IC50 (LRRK2 WT; biochemical LRRK2 assay, n ≥ 2): 2 nM | MDR1 BA/AB (MDR1; MDR1 efflux ratio): 1.2 | RRCK PappAB ([2]; passive permeability): 18.2 1 × 10^–6 cm/s

N#[11C]c1cccc(-c2c[nH]c3ncnc(N4CCOCC4)c23)c1 [[^11C]3]
reduction of radioactive uptake under self-blocking (LRRK2 [3]; cerebellum): 83% | reduction of radioactive uptake under self-blocking (LRRK2 [3]; cerebral cortex): 87% | reduction of radioactive uptake under self-blocking (LRRK2 [3]; hippocampus): 87% | reduction of radioactive uptake under self-blocking (LRRK2 [3]; pons): 64% | reduction of radioactive uptake under self-blocking (LRRK2 [3]; striatum): 85% | reduction of radioactive uptake under self-blocking (LRRK2 [3]; thalamus): 83%

CN(C)c1ncnc2[nH]cc(-c3ccc([18F])nc3)c12 [compound 1]
Kd (LRRK2 [1]): 6.7 nM

[18F]c1ccc(-c2c[nH]c3ncnc(N4CCOCC4)c23)cn1 [compound 2]
Kd (LRRK2 [1]): 14.3 nM

N#Cc1cccc(-c2c[nH]c3ncnc(N4CCOCC4)c23)c1 [compound 3, 3-(4-morpholino-7H-pyrrolo[2,3-d]pyrimidin-5-yl)benzonitrile]
IC50 (LRRK2 WT; biochemical LRRK2 assay, n ≥ 2): 3 nM | IC50 (LRRK2 G2019S; biochemical LRRK2 assay, n ≥ 2): 14 nM | IC50 (LRRK2 [4]; Table S1): 25 nM | HLM CL [5]: 36 mL/min/kg | IC50 (THLE cells): > 223000 nM | MDR1 BA/AB (MDR1; MDR1 efflux ratio): 1.08 | MDR1 BA/AB (MDR1; Table S1): 1.0 | RRCK PappAB ([2]; Table S1, unit assumed): 27 10^-6 cm/s | RRCK Papp AB [2]: 26.68 | RRCK PappAB ([2]; passive permeability): 26.68 1 × 10^–6 cm/s

N#Cc1cccc(-c2c[nH]c3ncnc(N4CCOCC4)c23)c1F [compound 4]
IC50 (LRRK2 WT; Table S1): 3 nM | IC50 (LRRK2 WT; biochemical LRRK2 assay, n ≥ 2): 3.58 nM | IC50 (LRRK2 G2019S; Table S1): 9 nM | IC50 (LRRK2 [4]; whole cellular LRRK2 assay, n ≥ 2): 20 nM | HLM CL [5]: 31.4 mL/min/kg | IC50 (THLE cells): 162000 nM | MDR1 BA/AB (MDR1; MDR1 efflux ratio): 1.10 | RRCK PappAB ([2]; Table S1, unit assumed): 29.2 10^-6 cm/s | RRCK Papp AB [2]: 29.18 | RRCK PappAB ([2]; passive permeability): 29.18 1 × 10^–6 cm/s | LogD [6]: 2.072 | pKa [6]: 5.61
